Test results published in ChEMBL document CHEMBL4177750, “Imidazopyrazinones (IPYs): Non-Quinolone Bacterial Topoisomerase Inhibitors Showing Partial Cross-Resistance with Quinolones” (J Med Chem, 2018).
Values after ≈ are worked out from the molar mass of the structure shown. Active and inactive are the calls of the source. No cut-off for these calls is given here.

Tests used:
[1] = Thermodynamic aqueous solubility of the compound at pH 7.4; conditions: aqueous solution
Escherichia coli [2] = assay: Antibacterial activity against tolC-deficient Escherichia coli K-12 MG1655 after 20 to 22 hrs; format: functional; conditions: K-12 substr. MG1655
[3] = Drug uptake in Swiss mouse kidney at 30 mg/kg, iv administered as single bolus dose by LC-MS/MS method; format: ADME, organism-based; conditions: in vivo
[4] = Metabolic stability in mouse plasma at 1 uM after 4 hrs; format: ADME, cell-free; conditions: read-out: Stability
Klebsiella pneumoniae [5] = assay: Antibacterial activity against tolC-deficient Klebsiella pneumoniae 1161486a after 20 to 22 hrs; format: functional
L5178Y [6] = assay: Genotoxicity in mouse L5178Y cells after 3 hrs in presence of S9 fraction by micronucleus test; format: toxicity, cell-based; conditions: s9, 3 h
[7] = Drug metabolism in rat liver microsomes at 5 uM after 20 mins in presence of NADPH; format: ADME, microsome; conditions: read-out: Drug metabolism
Escherichia coli [8] = assay: Antibacterial activity against hyperpermeable Escherichia coli D22 harboring LpxC mutant after 20 to 22 hrs
Staphylococcus aureus [9] = assay: Antibacterial activity against methicillin-resistant Staphylococcus aureus ATCC 33592 after 20 to 22 hrs in presence of 50% calf fetal serum; format: functional, organism-based
Cytochrome P450 3A4 [10] = biological target: T1, Cytochrome P450 3A4 (Homo sapiens, UniProt P08684); assay: Inhibition of CYP3A4-mediated testosterone metabolism in human liver microsomes
[11] = Drug metabolism in human liver microsomes at 5 uM after 20 mins in presence of NADPH; format: ADME, microsome; conditions: read-out: Drug metabolism
[12] = biological target: Muscarinic acetylcholine receptor M3 (Homo sapiens) (UniProt P20309); assay: Inhibition of M3 receptor (unknown origin) at 10 uM relative to control
[13] = Half life in Swiss mouse plasma at 30 mg/kg, iv administered as single bolus dose by LC-MS/MS method; format: ADME, organism-based
[14] = Apparent permeability across human Caco2 cells; conditions: Caco-2
Escherichia coli [15] = assay: Antibacterial activity against ESBL producing Escherichia coli ATCC 35218 after 20 to 22 hrs; format: functional
Staphylococcus aureus [16] = assay: Antibacterial activity against methicillin-resistant Staphylococcus aureus ATCC 33592 after 20 to 22 hrs in presence of 50% mouse serum; format: functional, organism-based
Mus musculus [17] = assay: Time during which free liver concentration exceeds in vitro MIC for Escherichia coli ATCC 35218 in Swiss mouse at 30 mg/kg, iv administered as single bolus dose by LC-MS/MS method; format: ADME, organism-based; conditions: in vivo
[18] = biological target: Voltage-gated inwardly rectifying potassium channel KCNH2 (Homo sapiens, UniProt Q12809); assay: Inhibition of human ERG transfected in CHO cells by patch clamp method
Mus musculus [19] = assay: Time during which free kidney concentration exceeds in vitro MIC for Escherichia coli ATCC 35218 in Swiss mouse at 30 mg/kg, iv administered as single bolus dose by LC-MS/MS method; format: ADME, organism-based; conditions: in vivo
Escherichia coli [20] = assay: Antibacterial activity against Escherichia coli K-12 MG1655 after 20 to 22 hrs; conditions: K-12 substr. MG1655
Pseudomonas aeruginosa [21] = assay: Antibacterial activity against Pseudomonas aeruginosa PAO1 after 20 to 22 hrs; format: functional
[22] = Metabolic stability in rat plasma at 1 uM after 4 hrs; format: ADME, cell-free; conditions: read-out: Stability
[23] = Drug uptake in Swiss mouse liver at 30 mg/kg, iv administered as single bolus dose by LC-MS/MS method; format: ADME, organism-based; conditions: in vivo
[24] = Unbound concentration in Swiss mouse plasma at 30 mg/kg, iv administered as single bolus dose measured at 5 mins by LC-MS/MS method; format: ADME, organism-based; conditions: in vivo
[25] = Cytotoxicity against human HepG2 cells assessed as decrease in cell viability after 40 hrs by Celltiter Glo assay
[26] = AUC (0 to last) in Swiss mouse plasma at 30 mg/kg, iv administered as single bolus dose by LC-MS/MS method; format: ADME, organism-based; set-up: dose 30 mg/kg, route intravenous, time 0 - last
Acinetobacter baumannii [27] = assay: Antibacterial activity against Acinetobacter baumannii BM4454 after 20 to 22 hrs; format: functional
[28] = Drug metabolism in mouse liver microsomes at 5 uM after 20 mins in presence of NADPH; format: ADME, microsome; conditions: read-out: Drug metabolism
Mus musculus [29] = assay: Time during which free lung concentration exceeds in vitro MIC for Escherichia coli ATCC 35218 in Swiss mouse at 30 mg/kg, iv administered as single bolus dose by LC-MS/MS method; format: ADME, organism-based; conditions: in vivo
Escherichia coli [30] = assay: Antibacterial activity against Escherichia coli ATCC 35218 in Swiss mouse septicemia model assessed as decrease in bacterial burden in blood at 15 mg/kg, iv bid administered at 1 and 3 hrs post infection measured at 4 hrs relative to vehicle-treated control; format: functional
[31] = biological target: T2, Muscarinic acetylcholine receptor M1 (Homo sapiens) (UniProt P11229); assay: Inhibition of M1 receptor (unknown origin) at 10 uM relative to control
T2 sequence (whole entry): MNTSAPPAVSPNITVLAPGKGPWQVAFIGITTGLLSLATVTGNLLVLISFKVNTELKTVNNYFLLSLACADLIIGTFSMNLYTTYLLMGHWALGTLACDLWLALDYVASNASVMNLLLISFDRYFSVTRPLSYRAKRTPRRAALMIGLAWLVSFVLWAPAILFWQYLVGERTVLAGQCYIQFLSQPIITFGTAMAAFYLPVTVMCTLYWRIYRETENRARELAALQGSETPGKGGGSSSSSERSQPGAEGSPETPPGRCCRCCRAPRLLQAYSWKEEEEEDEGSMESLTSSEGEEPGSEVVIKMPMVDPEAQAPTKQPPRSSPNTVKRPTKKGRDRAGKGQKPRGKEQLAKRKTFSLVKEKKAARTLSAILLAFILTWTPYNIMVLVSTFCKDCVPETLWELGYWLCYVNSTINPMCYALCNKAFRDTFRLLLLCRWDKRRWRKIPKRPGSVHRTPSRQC

L5178Y [32] = assay: Genotoxicity in mouse L5178Y cells after 23 hrs in absence of S9 fraction by micronucleus test; format: toxicity, cell-based
Mus musculus [33] = assay: Toxicity in Swiss mouse at 30 mg/kg, iv bid administered as bolus dose every 2 hrs measured daily for 5 days; format: organism-based; conditions: in vivo, 120 h
Pseudomonas aeruginosa [34] = assay: Antibacterial activity against Pseudomonas aeruginosa PAO750 harboring mexAB-oprM/mexCD-oprJ/mexEF-oprN/mexXY/opmH/mexJK/pscC deletion mutant after 20 to 22 hrs; format: functional
Cytochrome P450 3A4 [35] = biological target: T1, Cytochrome P450 3A4; assay: Inhibition of CYP3A4-mediated midazolam metabolism in human liver microsomes
Escherichia coli [36] = assay: Antibacterial activity against Escherichia coli ATCC 35218 in Swiss mouse septicemia model assessed as mouse survival at 30 mg/kg, iv bid administered at 1 and 3 hrs post infection measured at 96 hrs relative to vehicle-treated control; format: functional; conditions: ATCC 35218, iv
[37] = Drug uptake in Swiss mouse lung at 30 mg/kg, iv administered as single bolus dose by LC-MS/MS method; format: ADME, organism-based; conditions: in vivo
[38] = Protein binding in mouse plasma by equilibrium dialysis method; format: ADME, cell-free; conditions: read-out: PPB (converted)
Staphylococcus aureus [39] = assay: Antibacterial activity against methicillin-resistant Staphylococcus aureus ATCC 33592 after 20 to 22 hrs; format: functional
Acinetobacter baumannii [40] = assay: Antibacterial activity against Acinetobacter baumannii BM4652 harboring adeABC/adeIJK deletion mutant after 20 to 22 hrs; format: functional
Klebsiella pneumoniae [41] = assay: Antibacterial activity against Klebsiella pneumoniae 1161486 after 20 to 22 hrs; format: functional
Escherichia coli [42] = assay: Antibacterial activity against Escherichia coli ATCC 35218 in Swiss mouse septicemia model assessed as mouse survival at 15 mg/kg, iv bid administered at 1 and 3 hrs post infection measured at 96 hrs relative to vehicle-treated control; format: functional; conditions: ATCC 35218, iv
Escherichia coli [43] = assay: Antibacterial activity against Escherichia coli ATCC 35218 in Swiss mouse septicemia model assessed as decrease in bacterial burden in blood at 30 mg/kg, iv bid administered at 1 and 3 hrs post infection measured at 4 hrs relative to vehicle-treated control; format: functional

T1 sequence (P08684 whole entry): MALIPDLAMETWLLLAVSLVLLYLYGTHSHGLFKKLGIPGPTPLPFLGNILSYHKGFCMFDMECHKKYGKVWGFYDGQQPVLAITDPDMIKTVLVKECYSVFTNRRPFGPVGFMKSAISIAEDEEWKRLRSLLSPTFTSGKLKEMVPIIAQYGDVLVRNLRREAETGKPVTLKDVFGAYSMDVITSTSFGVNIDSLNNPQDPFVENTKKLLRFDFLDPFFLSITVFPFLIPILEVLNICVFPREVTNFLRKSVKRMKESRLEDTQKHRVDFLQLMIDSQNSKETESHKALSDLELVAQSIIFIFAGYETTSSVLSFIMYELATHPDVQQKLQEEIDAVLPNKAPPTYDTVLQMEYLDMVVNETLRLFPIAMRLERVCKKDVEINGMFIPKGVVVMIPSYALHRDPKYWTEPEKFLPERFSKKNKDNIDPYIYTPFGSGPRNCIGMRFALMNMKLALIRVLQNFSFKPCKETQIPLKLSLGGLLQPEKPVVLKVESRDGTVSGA
Muscarinic acetylcholine receptor M3 (Homo sapiens), sequence (P20309 whole entry, looked up): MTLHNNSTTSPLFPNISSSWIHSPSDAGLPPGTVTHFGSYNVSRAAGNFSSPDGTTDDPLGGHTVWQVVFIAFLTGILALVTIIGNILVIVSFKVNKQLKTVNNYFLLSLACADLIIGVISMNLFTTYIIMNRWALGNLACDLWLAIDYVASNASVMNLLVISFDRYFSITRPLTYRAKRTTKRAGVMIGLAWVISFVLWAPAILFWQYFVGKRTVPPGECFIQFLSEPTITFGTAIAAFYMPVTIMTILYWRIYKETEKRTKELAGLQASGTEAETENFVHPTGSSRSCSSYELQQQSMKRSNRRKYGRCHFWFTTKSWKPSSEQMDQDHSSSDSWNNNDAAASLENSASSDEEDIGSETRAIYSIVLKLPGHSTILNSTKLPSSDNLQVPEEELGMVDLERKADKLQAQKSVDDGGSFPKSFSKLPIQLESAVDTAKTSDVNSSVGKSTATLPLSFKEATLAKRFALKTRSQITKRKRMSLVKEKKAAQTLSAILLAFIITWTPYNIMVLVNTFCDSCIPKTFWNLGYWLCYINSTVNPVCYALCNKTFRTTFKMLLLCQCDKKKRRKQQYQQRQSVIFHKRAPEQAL
Voltage-gated inwardly rectifying potassium channel KCNH2, sequence (Q12809 whole entry): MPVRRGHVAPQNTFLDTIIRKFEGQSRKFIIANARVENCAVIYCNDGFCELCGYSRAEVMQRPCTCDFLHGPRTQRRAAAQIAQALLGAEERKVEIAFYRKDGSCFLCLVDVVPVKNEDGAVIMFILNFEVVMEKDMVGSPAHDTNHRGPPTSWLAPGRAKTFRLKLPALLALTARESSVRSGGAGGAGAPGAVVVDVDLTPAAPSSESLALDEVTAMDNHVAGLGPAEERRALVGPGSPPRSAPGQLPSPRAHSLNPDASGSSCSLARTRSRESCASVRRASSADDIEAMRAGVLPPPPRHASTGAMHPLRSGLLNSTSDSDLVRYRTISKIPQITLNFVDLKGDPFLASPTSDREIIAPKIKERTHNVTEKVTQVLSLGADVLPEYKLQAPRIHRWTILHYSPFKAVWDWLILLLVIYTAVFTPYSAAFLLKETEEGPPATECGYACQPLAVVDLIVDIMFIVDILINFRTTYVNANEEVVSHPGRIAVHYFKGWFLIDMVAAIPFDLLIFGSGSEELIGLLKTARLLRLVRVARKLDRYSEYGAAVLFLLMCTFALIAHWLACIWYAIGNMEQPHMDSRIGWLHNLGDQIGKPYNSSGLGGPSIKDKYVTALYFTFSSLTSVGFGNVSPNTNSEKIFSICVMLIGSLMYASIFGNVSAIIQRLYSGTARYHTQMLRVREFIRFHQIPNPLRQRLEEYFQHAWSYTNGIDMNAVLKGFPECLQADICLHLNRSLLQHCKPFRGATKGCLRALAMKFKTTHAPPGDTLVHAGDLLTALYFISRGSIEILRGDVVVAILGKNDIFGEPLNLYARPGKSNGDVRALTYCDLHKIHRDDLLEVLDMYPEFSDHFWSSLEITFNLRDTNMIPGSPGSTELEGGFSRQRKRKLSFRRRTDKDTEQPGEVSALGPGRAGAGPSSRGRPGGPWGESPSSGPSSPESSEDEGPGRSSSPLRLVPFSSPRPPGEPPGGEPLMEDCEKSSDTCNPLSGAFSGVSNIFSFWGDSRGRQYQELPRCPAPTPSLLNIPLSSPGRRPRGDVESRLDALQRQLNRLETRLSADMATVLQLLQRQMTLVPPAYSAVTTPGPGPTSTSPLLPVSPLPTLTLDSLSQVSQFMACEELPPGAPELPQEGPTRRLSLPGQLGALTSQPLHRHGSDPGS

## N[C@H]1CCN(c2cc3c(cc2F)n2ncnc2c(=O)n3C2CC2)C1
[1]
  solubility thermodynamic: 926 µg/mL (≈ 2820 µM)
Escherichia coli [2]
  MIC: < 0.125 µg/mL
[3]
  Drug uptake: Active
[4]
  remaining at 4 h, 1 µM: 80 to 120%
Klebsiella pneumoniae [5]
  MIC: 0.5 µg/mL (≈ 1.52 µM)
L5178Y [6]
  Activity: Toxic
[7]
  metabolised at 20 min, 5 µM: 8%
Escherichia coli [8]
  MIC: 1 µg/mL (≈ 3.05 µM)
Staphylococcus aureus [9]
  Activity: Active
Cytochrome P450 3A4 [10]
  IC50: > 30 µM
[11]
  metabolised at 20 min, 5 µM: 0%
[12]
  inhibition: 50 to 60%
[13]
  half-life: 1 h
[14]
  Papp: 3.2 ×10⁻⁶ cm/s
Escherichia coli [15]
  MIC: 2 µg/mL (≈ 6.09 µM)
Staphylococcus aureus [16]
  Activity: Active
Mus musculus [17]
  Time: 2 h
[18]
  IC50: > 30 µM
Mus musculus [19]
  Time: 2 h
Escherichia coli [20]
  MIC: 4 µg/mL (≈ 12.2 µM)
Pseudomonas aeruginosa [21]
  MIC: > 64 µg/mL
[22]
  remaining at 4 h, 1 µM: 80 to 120%
[23]
  Drug uptake: Active
[24]
  Cp(f): 2500 ng/mL
[25]
  CC50 at 40 h: > 30 µM
[26]
  AUC(0-t): 7200 ng·h/mL
Acinetobacter baumannii [27]
  MIC: > 64 µg/mL
[28]
  metabolised at 20 min, 5 µM: 8%
Mus musculus [29]
  Time: 2 h
Escherichia coli [30]
  Activity: 1.6 deltalog10CFU/ml
[31]
  inhibition: 50 to 60%
L5178Y [32]
  Activity: Toxic
Mus musculus [33]
  Activity: Non-Toxic
Pseudomonas aeruginosa [34]
  MIC: 1 µg/mL (≈ 3.05 µM)
Cytochrome P450 3A4 [35]
  IC50: > 30 µM
Escherichia coli [36]
  survival at 30 mg/kg: 30%
[37]
  Drug uptake: Active
[38]
  fraction unbound: 0.38
Staphylococcus aureus [39]
  MIC: 4 µg/mL (≈ 12.2 µM)
Acinetobacter baumannii [40]
  MIC: 4 µg/mL (≈ 12.2 µM)
Klebsiella pneumoniae [41]
  MIC: 32 µg/mL (≈ 97.5 µM)
Escherichia coli [42]
  survival at 15 mg/kg: 0%
Escherichia coli [43]
  Activity: 3.2 deltalog10CFU/ml
